Biological target: T1, Human Neuropeptide Y1 Receptors (Homo sapiens, UniProt P25929)
T1 construct: 50 μL SK-N-MC preparation containing 50 μg/tube membrane protein; host or cells: SK-N-MC human neuroblastoma cells (membranes)
T1 sequence (P25929 1-384): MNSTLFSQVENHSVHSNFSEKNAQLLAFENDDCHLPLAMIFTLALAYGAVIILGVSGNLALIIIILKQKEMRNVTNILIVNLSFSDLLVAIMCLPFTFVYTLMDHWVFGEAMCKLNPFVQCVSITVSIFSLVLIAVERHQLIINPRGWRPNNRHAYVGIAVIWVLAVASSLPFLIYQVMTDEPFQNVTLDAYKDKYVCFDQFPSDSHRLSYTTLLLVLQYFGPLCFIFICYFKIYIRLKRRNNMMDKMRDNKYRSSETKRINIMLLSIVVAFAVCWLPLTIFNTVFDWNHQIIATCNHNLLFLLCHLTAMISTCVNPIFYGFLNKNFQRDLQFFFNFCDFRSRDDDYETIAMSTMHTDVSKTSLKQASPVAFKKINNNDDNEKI
Assay: Receptor binding: inhibition of [^125 I]Peptide YY binding to human neuropeptide Y1 receptors (SK-N-MC membranes)
Details: not given
Protocol: The compounds of Formula I are valuable neuropeptide Y1 antagonists. The compounds of Formula I were tested for their ability to bind to the neuropeptide Y1 receptor subtype as measured by their inhibition of [^125 I]Peptide YY to human NPY1 receptors.
Human neuroblastoma cells, SK-N-MC, obtained from American Type Culture Collection were grown in Dulbecco's modified Eagle medium (Gibco) containing 10% fetal bovine serum and 100 units per mL/100 μg/mL penicillin/streptomycin (Gibco). After cells were confluent, growth media was replaced with fresh media and cells were allowed to continue growing for an additional 24 hours. Cells were then harvested in a buffer consisting of the following: 25 mM Tris(hydroxymethyl)amino methane (Tris), pH 7.4, 6 mM MgCl2, 250 μg/mL bacitracin, 250 μg/mL aprotinin, 250 μg/mL leupeptin, 250 μg/mL 4-(2-aminoethyl)-benzenesulfonylfluoride hydrochloride (Peflabloc) (Pentapharm AG). Growth media was removed and cells were lifted from the flasks with Dulbecco's phosphate buffered saline (D-PBS) containing 0.02% ethylenediaminetetraacetic acid (EDTA). Cells were pelleted and homogenized using a polytron, and broken membranes were pelleted by centrifugation at 18,000 rpm for 10 minutes at 4° C. The pelleted membranes were resuspended in the above buffer and frozen at […].
D-PBS (Gibco) pH 7.4, containing 0.5 g/L bacitracin and […] bovine serum albumin (BSA), was used in the preparation of compound and radiolabel. Each assay tube consisted of the following: […] of compound or buffer, 100 μL[^125 I]-PYY (Peptide YY) (30 pM), and 50 μL SK-N-MC preparation containing 50 μg/tube membrane protein for a total volume of 250 μL/tube. Non-specific binding was defined by the addition of 300 nM final concentration of neuropeptide Y. After addition of all reagents, tubes were shaken while incubating for 60 minutes at room temperature. The assay was terminated by filtering through a Whatman GF/C filter previously saturated with 0.1% polyethylenimine in 10 mM Tris, pH 7.5 containing 0.1% BSA. Filters were punched from the filter mat, placed in tubes, and counted for 1 minute using a gamma counter. The Ki was determined using the Graph PAD data analysis software program.
With `Nc1cc(S(=O)(=O)c2ccc([N+](=O)[O-])cc2)c([N+](=O)[O-])c2cccnc12` [Example 8, 5-Nitro-6-(4-nitro-benzenesulfonyl)-quinolin-8-ylamine] the Ki was 1000 nM.

Same assay, conditions: 30 pM [^125 I]-PYY, SK-N-MC membranes, 60 minutes, room temperature, pH 7.4; read-out: Inhibition of [^125 I]Peptide YY Binding to Human Neuropeptide Y1 Receptors Ki
Compound `Cc1ccc(S(=O)(=O)c2cc(N)c3ncccc3c2[N+](=O)[O-])cc1` [Example 4, 5-Nitro-6-(toluene-4-sulfonyl)-quinolin-8-ylamine] has a Ki of 594 nM. In the case of `Nc1cc(S(=O)(=O)c2ccccc2C(F)(F)F)c([N+](=O)[O-])c2cccnc12` [Example 29, 5-Nitro-6-(2-trifluoromethyl-benzenesulfonyl)-quinolin-8-ylamine], the Ki is reported as 84 nM. For `Nc1cc(S(=O)(=O)c2ccc(F)cc2)c([N+](=O)[O-])c2cccnc12` [Example 16, 6-(4-Fluoro-benzenesulfonyl)-5-nitro-quinolin-8-ylamine], the Ki was 603 nM. `COc1cccc(S(=O)(=O)c2cc(N)c3ncccc3c2[N+](=O)[O-])c1` [Example 17, 6-(3-Methoxy-benzenesulfonyl)-5-nitro-quinolin-8-ylamine] gave a Ki of 311 nM. Work on `Nc1cc(S(=O)(=O)c2ccccc2Cl)c([N+](=O)[O-])c2cccnc12` [Example 13, 6-(2-Chloro-benzenesulfonyl)-5-nitro-quinolin-8-ylamine] yielded a Ki of 93 nM. `Cc1cccc(S(=O)(=O)c2cc(N)c3ncccc3c2[N+](=O)[O-])c1` [Example 9, 5-Nitro-6-(toluene-3-sulfonyl)-quinolin-8-ylamine] gave a Ki of 373 nM. In the case of `Nc1cc(S(=O)(=O)c2ccc(Cl)cc2)c([N+](=O)[O-])c2cccnc12` [Example 2, 6-(4-Chloro-benzenesulfonyl)-5-nitro-quinolin-8-ylamine], the Ki is reported as 1750 nM. Compound `Nc1cc(S(=O)(=O)c2cc(Cl)ccc2Cl)c([N+](=O)[O-])c2cccnc12` [Example 30, 6-(2,5-Dichloro-benzenesulfonyl)-5-nitro-quinolin-8-ylamine] has a Ki of 283 nM. Compound `Nc1cc(S(=O)(=O)c2ccc3ccccc3c2)c([N+](=O)[O-])c2cccnc12` [Example 5, 6-(Naphthalene-2-sulfonyl)-5-nitro-quinolin-8-ylamine] has a Ki of 1200 nM. Work on `CC(C)c1ccccc1S(=O)(=O)c1cc(N)c2ncccc2c1[N+](=O)[O-]` [Example 19, 6-(2-Isopropyl-benzenesulfonyl)-5-nitro-quinolin-8-ylamine] yielded a Ki of 48 nM. For `Nc1cc(S(=O)(=O)c2ccccc2Br)c([N+](=O)[O-])c2cccnc12` [Example 24, 6-(2-Bromo-benzenesulfonyl)-5-nitro-quinolin-8-ylamine], the Ki was 234 nM. Work on `N#Cc1ccc(S(=O)(=O)c2cc(N)c3ncccc3c2[N+](=O)[O-])cc1` [Example 11, 4-(8-Amino-5-nitro-quinoline-6-sulfonyl)-benzonitrile] yielded a Ki of 854 nM. With `CC(C)(C)c1ccc(S(=O)(=O)c2cc(N)c3ncccc3c2[N+](=O)[O-])cc1` [Example 7, 6-(4-tert-Butyl-benzenesulfonyl)-5-nitro-quinolin-8-ylamine] the Ki was 3200 nM. In the case of `Cc1ccc(S(=O)(=O)c2cc(N)c3ncccc3c2[N+](=O)[O-])c(C)c1` [Example 22, 6-(2,4-Dimethyl-benzenesulfonyl)-5-nitro-quinolin-8-ylamine], the Ki is reported as 222 nM. With `Nc1cc(S(=O)(=O)c2cccc(Cl)c2Cl)c([N+](=O)[O-])c2cccnc12` [Example 26, 6-(2,3-Dichloro-benzenesulfonyl)-5-nitro-quinolin-8-ylamine] the Ki was 93 nM. With `CC(=O)Nc1ccccc1S(=O)(=O)c1cc(N)c2ncccc2c1[N+](=O)[O-]` [Example 25, N-[2-(8-Amino-5-nitro-quinoline-6-sulfonyl)-phenyl]-acetamide] the Ki was 590 nM. In the case of `Nc1cc(S(=O)(=O)c2cccc3ccccc23)c([N+](=O)[O-])c2cccnc12` [Example 20, 6-(Naphthalene-1-sulfonyl)-5-nitro-quinolin-8-ylamine], the Ki is reported as 46 nM. For `Cc1ccccc1S(=O)(=O)c1cc(N)c2ncccc2c1[N+](=O)[O-]` [Example 12, 5-Nitro-6-(toluene-2-sulfonyl)-quinolin-8-ylamine], the Ki was 119 nM. In the case of `Nc1cc(S(=O)(=O)c2ccccc2F)c([N+](=O)[O-])c2cccnc12` [Example 27, 6-(2-Fluoro-benzenesulfonyl)-5-nitro-quinolin-8-ylamine], the Ki is reported as 58 nM. Compound `Nc1cc(S(=O)(=O)c2ccc(O)cc2)c([N+](=O)[O-])c2cccnc12` [Example 10, 4-(8-Amino-5-nitro-quinoline-6-sulfonyl)-phenol] has a Ki of 136 nM. With `Nc1cc(S(=O)(=O)c2cccc(Cl)c2)c([N+](=O)[O-])c2cccnc12` [Example 15, 6-(3-Chloro-benzenesulfonyl)-5-nitro-quinolin-8-ylamine] the Ki was 892 nM. With `CCc1ccccc1S(=O)(=O)c1cc(N)c2ncccc2c1[N+](=O)[O-]` [Example 18, 6-(2-Ethyl-benzenesulfonyl)-5-nitro-quinolin-8-ylamine] the Ki was 129 nM. In the case of `CC(C)c1cccc(C(C)C)c1S(=O)(=O)c1cc(N)c2ncccc2c1[N+](=O)[O-]` [Example 28, 6-(2,6-Diisopropyl-benzenesulfonyl)-5-nitro-quinolin-8-ylamine], the Ki is reported as 48 nM. For `Cc1ccc(C)c(S(=O)(=O)c2cc(N)c3ncccc3c2[N+](=O)[O-])c1` [Example 6, 6-(2,5-Dimethyl-benzenesulfonyl)-5-nitro-quinolin-8-ylamine], the Ki was 148 nM. In the case of `Nc1cc(S(=O)(=O)c2ccccc2)c([N+](=O)[O-])c2cccnc12` [Example 1, 6-Benzenesulfonyl-5-nitro-quinolin-8-ylamine], the Ki is reported as 297 nM. In the case of `Nc1cc(S(=O)(=O)c2c(Cl)cccc2Cl)c([N+](=O)[O-])c2cccnc12` [Example 23, 6-(2,6-Dichloro-benzenesulfonyl)-5-nitro-quinolin-8-ylamine], the Ki is reported as 273 nM. Work on `COc1ccccc1S(=O)(=O)c1cc(N)c2ncccc2c1[N+](=O)[O-]` [Example 21, 6-(2-Methoxy-benzenesulfonyl)-5-nitro-quinolin-8-ylamine] yielded a Ki of 490 nM. For `Cc1cccc(C)c1S(=O)(=O)c1cc(N)c2ncccc2c1[N+](=O)[O-]` [Example 14, 6-(2,6-Dimethyl-benzenesulfonyl)-5-nitro-quinolin-8-ylamine], the Ki was 295 nM. `CC(C)(C)c1ccccc1S(=O)(=O)c1cc(N)c2ncccc2c1[N+](=O)[O-]` [Example 31, 6-(2-tert-Butyl-benzenesulfonyl)-5-nitro-quinolin-8-ylamine] gave a Ki of 1400 nM. For `COc1ccc(S(=O)(=O)c2cc(N)c3ncccc3c2[N+](=O)[O-])cc1` [Example 3, 6-(4-Methoxy-benzenesulfonyl)-5-nitro-quinolin-8-ylamine], the Ki was 1140 nM.

System: rats
Assay: not given
Details: administration into the central nervous system; cited from earlier work
In the case of “NPY: Neuropeptide Y (NPY), involved in the control of feeding in mammals; agonist in the cAMP assay”, the effect on feeding is listed as “dramatic increase in feeding”.
